{"source": "patent US12629351B2", "about": "“HDAC inhibitors for idiopathic pulmonary fibrosis and other lung inflammatory disorders” (COUNCIL OF SCIENTIFIC AND INDUSTRIAL RESEARCH (AN INDIAN …, priority 2020, dated 2026)", "key": {"[1]": {"test_system": "NHLF, DHLF and LL29 cells", "assay": "q-RT-PCR gene expression in TGF-β1 stimulated cells, statements not split by cell line", "assay_type": "cell-based, human", "settings": "for HDAC-8 levels (gene expression): TGF-β1 stimulated, other concentrations", "protocol": "(§1) LL29 cells (lung fibroblasts from IPF patient) were purchased from ATCC and cultured in Ham's F-12K medium supplemented with 15% FBS. Primary lung fibroblasts cells, NHLF and DHLF-IPF cells were purchased from LONZA and cultured in FGF-2 medium with FGF, Insulin and FBS. All the cells were maintained in a humidified atmosphere of 95% air with 5% CO2 at 37° C.\n(§2) Cells were pre-treated with HDAC-inhibitors (COMPOUND-109, COMPOUND-108 and COMPOUND-107) for 2 hours in serum free media and then human recombinant TGF-β (R&D Systems, Minneapolis, MN) was added at a concentration of 5 ng/mL and cultured for 72 hours for all the experiments.\n(§3) RNA isolation was carried out using Trizol as described^12,13. RNA was isolated using Trizol-chloroform method and total RNA was quantified using nano-drop, 1 μg of RNA was used for cDNA synthesis using primescript cDNA synthesis kit (Takara bio) according to manufacturer's instructions. Primers for EMT (Fibronectin1 (FN1), Vimentin, α-SMA and Snail) markers, ECM markers (Timp1, Timp3 and LoxL2), Collagen markers (Collagen 1α1 (Col1) and Collagen 3α1[…] and housekeeping markers (β2M and β-actin) were designed using Primer 3 software and all primer sequences were listed in Table 1. Real time quantitative PCR (qRT-PCR) was carried out using SYBR green master mix and the differences in mRNA expression of all the gene levels were calculated as the fold change using the formula 2-ΔΔct. In all Q-RT-PCR data plots, vehicle control fold change was normalized to 1."}, "NHLF cells": {"test_system": "NHLF cells", "assay": "q-RT-PCR gene expression in TGF-β1 stimulated NHLF cells", "assay_type": "cell-based, human", "protocol": "as §1, §2, §3"}, "LL29 cells": {"test_system": "LL29 cells", "assay": "q-RT-PCR gene expression in TGF-β1 stimulated LL29 cells", "assay_type": "cell-based, human", "protocol": "as §1, §2, §3"}, "[2]": {"test_system": "BLM-induced pulmonary fibrosis", "assay": "Bleomycin (BLM) induced pulmonary fibrosis model", "assay_type": "in vivo, Wistar rats", "settings": "for ALP levels / LDH levels: BALF, oral, daily for 14 days; for BLM induced thickened alveolar walls, inflammatory cells infiltration, deposition of collagen fibers (histopathology): H&E (Fibrosis score) and Masson's staining (Ashcroft score), compared BLM alone group; for BLM-induced inflammation, fibrotic marker expression and pathological changes in lung tissues: collective in-vivo conclusion", "protocol": "as §3\nAdult female Wistar rats (180-200 g, n=50) at the age of 8-10 weeks were used to develop bleomycin induced pulmonary fibrosis model. All animals were kept under constant environmental and nutritional conditions throughout the experimental period. The research protocol complies with the ethical guidelines of experimental research; “Institutional Animal Ethics Committee” (CPSCEA Registration No. 97/GO/RBi/S/1999/CPCSEA and study approval No. IICT/056/2019), CSIR-IICT, Hyderabad.\nExcept 8 animals (Sham control), pulmonary fibrosis was induced in remaining all animals (32 Wistar rats) by intratracheal instillation of BLM (5 mg/kg) as sulfate salt dissolved in 1 mL of normal saline. Rats were anesthetized using ketamine and xylazine (80 mg/kg and 15 mg/kg respectively as per body weight, I.P.). BLM was administered intratracheally into the lungs of the rats.\nPulmonary fibrosis was induced by a single intratracheal instillation of BLM (5 mg/kg) to the set of animals (n=40) excluding sham control animals (n=8)^14. BLM was dissolved in saline to attain the concentration of 5 mg/ml. Animals were anesthetized with ketamine (80 mg/kg) and xylazine (10 mg/kg). BLM was administered intratracheal (5 mg/kg) to the anesthetized Wistar rats and saline was administered intratracheally in to sham control animals. […] Further, these animals were randomized into four groups (as described in Table-2) apart from sham control (8 rats/group).\nAs described in the grouping pattern Table 2 and 3, animals were grouped and administered the compounds orally in the form of gum-acacia suspension (0.25%) daily for 14 days. Sham control (without bleomycin) animals were used as a control for bleomycin control (disease control) and administered everyday 0.5 mL of saline for 14 days orally. After the treatment period, BALF fluid was collected from 4 animals in each group and lungs were collected from another 4 animals for ex-vivo experiments and histopathological observations.\n(§4) In 4 animals from each group, the thoracic cavity was opened and the tracheas were exposed, cannulated and 3 mL sterile 0.9% saline was slowly infused into the lungs. BALF was centrifuged at 2000 rpm, 4 ° C. for 10 min using cooling centrifuge. The sedimented cell pellets were pooled and re-suspended in 500 μl of sterile saline to quantify inflammatory cell counts; supernatant BLAF was examined for ALP and LDH parameters using auto-analyzer.\nCollagen deposition was determined by measuring the total hydroxyproline content in wet lung tissue, which was measured by a hydroxyproline assay kit (abcam), according to the manufacturer's protocol. In brief, lungs were homogenized in sterile distilled water, alkalized using 10N NaOH and heated at 120° C. for 1 hour. Following alkaline hydrolysis samples were neutralized using 10N concentrated HCL. Then samples were into 96 well plate along with standards and kept for evaporation at 65° C. Then samples were oxidized by adding oxidation mixture followed by addition of developer and incubated at 37° C. for 5 min. […]"}, "LPS induced ARDS": {"test_system": "LPS induced ARDS", "assay": "LPS induced ARDS model", "assay_type": "in vivo, SD rats", "protocol": "as §3\nTreatment group animals were treated with HDACi (COMPOUND-108) for 7 days at the doses of (1.5 mg/kg and 3 mg/kg), after the treatment period animals were subjected to ARDS instillation by intratracheally. Rats were anesthetized using ketamine and xylazine (80 mg/kg and 20 mg/kg, respectively as per body weight, I.P.). Except 8 animals (Sham control), ARDS was induced in remaining all animals (24 SD rats) by intratracheal instillation of Lipopolysachharide (5 mg/kg) dissolved in normal saline.\nas §4\nA portion of the pulmonary lobe was harvested, rinsed with ice-cold phosphate buffer saline, and fixed with 10% neutral-buffered formalin, embedded in paraffin wax, sectioned (6 μm) and stained with H&E and Masson's trichrome. Three serial slices of 3 μm thickness each 50 μm apart of both lung lobes were stained with Masson's Trichrome. The slides were analyzed with a microscope in a random order using an (10×) objective. The severity of fibrosis and alveolitis in lung tissues (using H&E and Masson's trichrome staining) was semi-quantitatively assessed by a pathologist in a blinded fashion via Ashcroft scoring system^15. The structural alterations of tissue were assessed based on the degree haemorrhage, emphysema, alveolar wall thickening, inflammatory lesions and collagen deposition or fibrosis^16."}}}
{"smiles": "Cn1cc(-c2cc(O)cc(F)c2)c2cc(NS(=O)(=O)c3ccc(C(=O)NO)cc3)ccc21", "note": "[COMPOUND-107, 4-(N-(3-(3-fluoro-5-hydroxyphenyl)-1-methyl-1H-indol-5-yl)sulfamoyl)-N-hydroxyl benzamide]", "values": [{"measurement": "HDAC-8 levels (gene expression)", "setting": "[1]", "result": "did not modulate"}, {"measurement": "HDAC-6 mRNA levels", "setting": "[1]; summary of Example 2", "result": "could inhibit only HDAC-6 mRNA levels"}, {"measurement": "vimentin levels", "setting": "NHLF cells", "result": "highly reduced"}, {"measurement": "α-SMA levels", "setting": "NHLF cells", "result": "highly reduced"}, {"measurement": "vimentin levels", "setting": "LL29 cells", "result": "highly reduced"}, {"measurement": "α-SMA levels", "setting": "LL29 cells", "result": "highly reduced"}, {"measurement": "Snail levels", "setting": "LL29 cells; 10 and 20 μM", "result": "highly down-regulated"}]}
{"smiles": "CCOc1ccc(-c2cn(C)c3ccc(NS(=O)(=O)c4ccc(C(=O)NO)cc4)cc23)cn1", "note": "[COMPOUND-109, 4-(N-(3-(6-ethoxypyridin-3-yl)-1-methyl-1H-indol-5-yl)sulfamoyl)-N-hydroxy benzamide]", "values": [{"measurement": "ALP levels", "setting": "[2]", "result": "reduced in dose dependently"}, {"measurement": "LDH levels", "setting": "[2]", "result": "reduced in dose dependently"}, {"measurement": "BLM induced thickened alveolar walls, inflammatory cells infiltration, deposition of collagen fibers (histopathology)", "setting": "[2]", "result": "reduced"}, {"measurement": "BLM-induced inflammation, fibrotic marker expression and pathological changes in lung tissues", "setting": "[2]", "result": "could effectively protect"}, {"measurement": "HDAC-8 levels (gene expression)", "setting": "[1]", "result": "did not modulate"}, {"measurement": "HDAC-6 mRNA levels", "setting": "[1]; summary of Example 2", "result": "could inhibit only HDAC-6 mRNA levels"}, {"measurement": "vimentin levels", "setting": "NHLF cells", "result": "not modulated"}, {"measurement": "α-SMA levels", "setting": "NHLF cells", "result": "highly reduced"}, {"measurement": "vimentin levels", "setting": "LL29 cells", "result": "not modulated"}, {"measurement": "α-SMA levels", "setting": "LL29 cells", "result": "highly reduced"}]}
{"smiles": "Cn1cc(-c2cccc(Cl)c2)c2cc(NS(=O)(=O)c3ccc(C(=O)NO)cc3)ccc21", "note": "[COMPOUND-108, 4-(N-(3-(3-chlorophenyl)-1-methyl-1H-indol-5-yl)sulfamoyl)-N-hydroxybenzamide]", "values": [{"measurement": "lung injury and infiltration of inflammatory cells (histopathology)", "setting": "LPS induced ARDS; 1.5 mg/kg", "result": "significant (p<0.01) reduction"}, {"measurement": "LPS induced Neutrophil count in blood", "setting": "LPS induced ARDS; 3 mg/kg", "result": "significantly attenuated"}, {"measurement": "lung injury and infiltration of inflammatory cells (histopathology)", "setting": "LPS induced ARDS; 3 mg/kg", "result": "significant (p<0.01) reduction"}, {"measurement": "plasma IL-6 Levels", "setting": "LPS induced ARDS; 3 mg/kg, at both the time points", "result": "reduced"}, {"measurement": "LPS induced infiltration of Neutrophils", "setting": "LPS induced ARDS; BALF", "result": "significantly attenuated"}, {"measurement": "LPS induced infiltration of WBC", "setting": "LPS induced ARDS; BALF", "result": "significantly attenuated"}, {"measurement": "LPS induced expression of inflammatory markers (IL-6, IL-1β, CCl2, Cox-2, CXCL-6, CCL-7, CXCL-1, CXCL-10)", "setting": "LPS induced ARDS; lung tissues, mRNA, dose dependent manner", "result": "significantly attenuated"}, {"measurement": "LPS induced inflammatory marker's expression (CXCL-11, TLR-3 and INF-γ)", "setting": "LPS induced ARDS; lung tissues, mRNA, in dose dependent manner", "result": "significantly attenuated"}, {"measurement": "pathological consequences (LPS induced), H&E", "setting": "LPS induced ARDS; pre-treatment at 1.5 and 3 mg/kg doses", "result": "remarkably repressed"}, {"measurement": "LPS induced Lung volume (index)", "setting": "LPS induced ARDS; rat, in vivo", "result": "significantly attenuated"}, {"measurement": "LPS induced spleen Indices", "setting": "LPS induced ARDS; rat, in vivo", "result": "significantly attenuated"}, {"measurement": "lung pathological conditions", "setting": "LPS induced ARDS; statement in embodiment", "result": "most effectively ameliorated"}, {"measurement": "ALP levels", "setting": "[2]", "result": "reduced in dose dependently"}, {"measurement": "LDH levels", "setting": "[2]", "result": "reduced in dose dependently"}, {"measurement": "BLM induced thickened alveolar walls, inflammatory cells infiltration, deposition of collagen fibers (histopathology)", "setting": "[2]", "result": "reduced"}, {"measurement": "BLM-induced inflammation, fibrotic marker expression and pathological changes in lung tissues", "setting": "[2]", "result": "could effectively protect"}, {"measurement": "fibrotic alterations in BLM challenged rat lung tissues", "setting": "[2]; statement in embodiment", "result": "most effectively ameliorated"}, {"measurement": "HDAC-8 levels (gene expression)", "setting": "[1]", "result": "did not modulate"}, {"measurement": "HDAC-6 mRNA levels", "setting": "[1]; summary of Example 2", "result": "potentially inhibits"}, {"measurement": "HDAC-8 mRNA levels", "setting": "[1]; summary of Example 2", "result": "potentially inhibits"}, {"measurement": "vimentin levels", "setting": "NHLF cells", "result": "highly reduced"}, {"measurement": "α-SMA levels", "setting": "NHLF cells", "result": "highly reduced"}, {"measurement": "HDAC-8 levels (gene expression)", "setting": "NHLF cells; 2.5 μM", "result": "reduced"}, {"measurement": "vimentin levels", "setting": "LL29 cells", "result": "highly reduced"}, {"measurement": "α-SMA levels", "setting": "LL29 cells", "result": "highly reduced"}, {"measurement": "HDAC-8 levels (gene expression)", "setting": "LL29 cells; 2.5 μM", "result": "reduced"}, {"measurement": "Snail levels", "setting": "LL29 cells; 5 and 10 μM", "result": "highly down-regulated"}]}
